Measurements from the Bradley open melting point set (2014).

SMILES | melting point [°C]
C(=N\c1ccccc1Nc1ccccc1/N=C/c1ccccc1)/c1ccccc1 | 103
CCCCCCSc1cc(N(NC(=O)OC(C)(C)C)C(=O)OC(C)(C)C)cc(SCCCCCC)c1SCCCCCC | 74.5
O=C1CCCc2cc3c(c(CSc4ccccc4)c21)-c1ccccc1OC3 | 91
C=CC1=C(/C=N/Nc2ccc([N+](=O)[O-])cc2[N+](=O)[O-])CCCC1 | 153
CC(=O)/N=c1\sc(C(C)=O)nn1-c1ccc(F)cc1 | 158
CC(=O)Nc1ccc(/N=N/c2ccc(/N=N/c3ccc(/N=N/c4ccc(NC(C)=O)cc4)cc3)cc2)cc1 | 247
CC(C)CCCC(C)C1CC[C@@]2(C)[C@@]34CCC5[C@H](C)[C@@H](O)CC[C@]5(C)[C@]3(CC[C@]12C)O4 (some centres not stated) | 162
Cc1c(C)c2c(c(C)c1O)CC[C@@](C)(CCC[C@H](C)CCC[C@H](C)CCCC(C)C)O2 | 2
CC12CCC(/C(=C/N(O)c3ccccc3)C1=O)C2(C)C (configuration not stated) | 107
CCN(Cc1ccc(Cl)nc1)/C(=C/[N+](=O)[O-])NC | 72
CCOC(=O)/C(=N/Nc1ccccc1[N+](=O)[O-])C(C)=O | 74
CCOC1Oc2ccc(C)cc2C(=O)/C1=C\Nc1nc2ccc(Cl)cc2s1 (configuration not stated) | 147
Cc1c(N(C)C)c(=O)n(-c2ccccc2)n1C | 108
CN(C)c1ccc(C=C/C(=N\Nc2ccccc2)c2ccccc2)cc1 | 128
COc1ccc(/C=C2\N=C(c3ccccc3)OC2=O)cc1OC | 133
COc1ccc(/N=N/c2sc(CC#N)nc2C)cc1 | 159
COc1ccc(N/N=C(\C#N)c2nc(-c3ccccc3)cs2)cc1 | 151
Cc1ccc(C(=O)c2nn(-c3ccccc3)/c(=N\N=C\c3ccco3)s2)cc1 | 114
ClC1=C(Cl)[C@]2(Cl)[C@@H]3[C@@H]4C[C@@H]([C@H]5O[C@@H]45)[C@@H]3[C@@]1(Cl)C2(Cl)Cl | 176
O=C(O)C1C(C(=O)O)C2(Cl)C(Cl)=C(Cl)C1(Cl)C2(Cl)Cl (configuration not stated) | 240
ClC1=C(Cl)[C@]2(Cl)C3C(Cl)C(Cl)CC3[C@@]1(Cl)C2(Cl)Cl (some centres not stated) | 106
CC(=O)N1CCN(c2ccc(OCC3COC(Cn4ccnc4)(c4ccc(Cl)cc4Cl)O3)cc2)CC1 (configuration not stated) | 146
O=c1ncn2nc(Sc3ccccc3)ccc2c1-c1c(Cl)cccc1Cl | 264

SMILES | melting point [°C]
O=C(Nc1ccccn1)C(C(F)(F)F)C(F)(F)F | 109
CCCCOc1ccc(NC(=O)C(F)(F)C(F)(F)C(F)(F)C(F)(F)C(F)(F)C(F)(F)C(F)(F)C(F)(F)F)cc1 | 137
NS(=O)(=O)c1cc2c(cc1Cl)NCNS2(=O)=O | 274
Nc1ccc(/N=N/c2ccc(/N=N/c3ccc(/N=N/c4ccc(/N=N/c5ccc(N)cc5)cc4)cc3)cc2)cc1 | 292
COc1ccc(C=C2C3=C(CCCC3)OC3=C2CCCC3)cc1 | 124
CCCOC1CCC2C3CC=C4CC5(CCC4(C)C3CCC12C)OCCO5 (configuration not stated) | 209
COc1ccc(C(=O)Nc2ccc(-c3ccc4nn(-c5ccccc5)nc4c3)cc2)cc1 | 106
CC1NC(C(=O)O)CC2=C3C=CCC=C3N=C21 (configuration not stated) | 244
CCn1cc(C(=O)O)c(=O)c2ccc(C)nc21 | 230
Cc1cc(C2(c3cc(C)c(O)c(CN(CC(=O)O)CC(=O)O)c3)OS(=O)(=O)c3ccccc32)cc(CN(CC(=O)O)CC(=O)O)c1O | 210
CC[C@@H](C(=O)[C@@H](C)[C@@H](O)[C@H](C)[C@@H]1O[C@@H]([C@@H](CC)C(=O)O)CC[C@@H]1C)[C@H]1O[C@]2(C=C[C@@H](O)[C@]3(CC[C@@](C)([C@H]4CC[C@](O)(CC)[C@H](C)O4)O3)O2)[C@H](C)C[C@@H]1C | 113
CC(C)(C)OC(=O)NCCCC[C@H](NC(=O)OCC1c2ccccc2-c2ccccc21)C(=O)O | 132
COC(=O)c1cc2ccccc2c(OC(=O)c2ccccc2C)c1C(=O)OC | 139
CC1CCC(C(C)C)C(OC(=O)C2(C)CCC(C)C2(C)C)C1 (configuration not stated) | 50
CC(=O)OC1CCC2(C)C3CCC4=C(CCC4(C)C(C)OC(C)=O)C3CCC2(C)C1 (configuration not stated) | 118
CC(=O)OC1COC(C#N)C(OC(C)=O)C1OC(C)=O (configuration not stated) | 134
Cc1ccc(C(=O)OC2CC(C#N)OC2OC(=O)c2ccc(C)cc2)cc1 (configuration not stated) | 111
CC(=O)OCC1OC(C#N)=CC(OC(C)=O)C1OC(C)=O (configuration not stated) | 114
O=C(OC[C@H]1O[C@@H](OC(=O)c2cc(O)c(O)c(OC(=O)c3cc(O)c(O)c(O)c3)c2)[C@H](OC(=O)c2cc(O)c(O)c(OC(=O)c3cc(O)c(O)c(O)c3)c2)[C@@H](OC(=O)c2cc(O)c(O)c(OC(=O)c3cc(O)c(O)c(O)c3)c2)[C@@H]1OC(=O)c1cc(O)c(O)c(OC(=O)c2cc(O)c(O)c(O)c2)c1)c1cc(O)c(O)c(OC(=O)c2cc(O)c(O)c(O)c2)c1 | 210
O=C(c1ccc(Cl)cc1)c1nn(-c2ccccc2)/c(=N\N=C\c2ccc(F)cc2)s1 | 151
CC(C)C1=C(O)C(=O)C2=C(C1=O)C(O)CC1C(C)(C)CCCC21C (configuration not stated) | 174
O=C1C2CC3=C(CC=CC3)CC2C(=O)C2CC3=C(CC=CC3)CC12 (configuration not stated) | 227
CC(=O)OC1CCCC2=CC(=O)CCC21C (configuration not stated) | 90

SMILES | melting point [°C]
CC12CCC(=O)CC1CCC1C2CCC2(C)C1CCC21OCCO1 (configuration not stated) | 188
CC1=C(C(=O)OCc2ccccc2)C(c2ccc3c(c2)OCO3)NC(=O)N1 (configuration not stated) | 159
O=C1OC(=O)C23Cc4ccccc4CC12Cc1ccccc1C3 (configuration not stated) | 269
COC(=O)C12C=CC(CC1)C1C(=O)OC(=O)C12 (configuration not stated) | 117
CC12C=CC(O1)C1C(=O)OC(=O)C12 (configuration not stated) | 70
O=C1OC(c2ccccc2)=N/C1=C/c1ccc(-c2ccccc2Br)o1 | 160
COc1ccc2c(c1)CC1(CCC(O)(c3ccc(C(C)(C)C)cc3)CC1)C2=O (configuration not stated) | 166
C[C@@H]1C[C@@H]([C@H](O)CC2CC(=O)NC(=O)C2)C(=O)[C@@H](C)C1 | 120
O=C(O)c1cc(/N=N/c2ccc(S(=O)(=O)Nc3ccccn3)cc2)ccc1O | 249
O=[N+]([O-])c1ccc(N/N=C/C2=C(/C=C/c3ccccc3)CCCC2)c([N+](=O)[O-])c1 | 163
CCCCCCCCCCCCCCCCCCN1c2ccccc2C(C)(C)C12C=Cc1cc([N+](=O)[O-])ccc1O2 (configuration not stated) | 81
CC12CCC(O)CC1CC1(OCCO1)C1C2CCC2(C)C1CCC21OCCO1 (configuration not stated) | 101
CC(C)CCCC(C)C1CCC2C3CC(O)C4(O)CC(O)CCC4(C)C3CCC12C (configuration not stated) | 238
COc1cc(/C=C/C(=O)CC(=O)/C=C/c2ccc(O)c(OC)c2)ccc1O | 180
C[C@H](Cc1ccc(O)c(O)c1)[C@@H](C)Cc1ccc(O)c(O)c1 | 180
CCSC(SCC)=C1CCCC(=C(SCC)SCC)C1=C(C#N)C#N | 101
CCOC(=O)C=C1SC(N2CCCCC2)C(=O)N1CC (configuration not stated) | 86
CN(C)c1ccc(C2Nn3c(COc4ccccc4)nnc3S2)cc1 (configuration not stated) | 144
COc1ccc(NC(=S)c2cc(C(C)(C)C)c(O)c(C(C)(C)C)c2)cc1 | 129
CCOC(=O)C12C(c3ccccc3O[P+]1([O-])OCC)C1(C(=O)OCC)C2c2ccccc2O[P+]1([O-])OCC (configuration not stated) | 218
FC(F)(F)c1cc(-c2cccs2)nc2cc(-c3cccs3)nn12 | 159
